The source of these data is ChEMBL document CHEMBL4715755, “Isothiouronium modification empowers pyrimidine-substituted curcumin analogs potent cytotoxicity and Golgi localization” (Eur J Med Chem, 2016).

A word on the IC50: it is the concentration that gives 50% inhibition.

In data set [1] the test system is A549. As to the kind of experiment: Cytotoxicity against human A549 cells assessed as reduction in cell viability incubated for 48 hrs by resazurin reagent based fluorescence assay. In kind it is functional. Particulars: A549, 48 h.
Another data set deals with HT-29. As to the kind of experiment: Cytotoxicity against human HT-29 cells assessed as reduction in cell viability incubated for 48 hrs by resazurin reagent based fluorescence assay. The format is functional. Particulars: HT-29, 48 h. A general note: Alamar Blue is a resazurin reagent that responds to reducing activity.
A further data set has as its system NCI-H1299. As to the kind of experiment: Cytotoxicity against human NCI-H1299 cells assessed as reduction in cell viability incubated for 48 hrs by resazurin reagent based fluorescence assay. In kind it is functional. To be noted: NCI-H1299, 48 h.
In a further data set the test system is HCT-116. As to the kind of experiment: Cytotoxicity against human HCT-116 cells assessed as reduction in cell viability incubated for 48 hrs by resazurin reagent based fluorescence assay. The format is functional. To be noted: HCT-116, 48 h.
Data set [2] deals with CHO. As to the kind of experiment: Cytotoxicity against CHO cells overexpressing 3-O-sulfotransferase 4 assessed as reduction in cell viability at 10 uM incubated for 48 hrs by resazurin reagent based fluorescence assay. Also noted: species or system Cricetulus griseus. Particulars: chinese hamster.
A short description of data set [3]: Cytotoxicity against GAG-deficient CHO-745 cells assessed as reduction in cell viability at 10 uM incubated for 48 hrs by resazurin reagent based fluorescence assay. Also noted: species or system Cricetulus griseus. Particulars: chinese hamster, cho-745, 48 h.
A further data set has as its system CHO-K1. As to the kind of experiment: Cytotoxicity against CHO-K1 cells assessed as reduction in cell viability at 10 uM incubated for 48 hrs by resazurin reagent based fluorescence assay. Also noted: species or system Cricetulus griseus. To be noted: chinese hamster, cho-k1, 48 h.
Data set [4] is described as follows: Cytotoxicity against heparan sulfate-deficient CHO-677 cells assessed as reduction in cell viability at 10 uM incubated for 48 hrs by resazurin reagent based fluorescence assay. Also noted: species or system Cricetulus griseus. To be noted: chinese hamster, cho-677, 48 h.
For data set [5], the system named is A549. As to the kind of experiment: Cytotoxicity against human A549 cells assessed as reduction in cell viability at 10 uM incubated for 48 hrs by resazurin reagent based fluorescence assay. In kind it is functional.
Data set [6] deals with CHO. As to the kind of experiment: Cytotoxicity against CHO cells overexpressing 3-O-sulfotransferase 2 assessed as reduction in cell viability at 10 uM incubated for 48 hrs by resazurin reagent based fluorescence assay. Also noted: species or system Cricetulus griseus. To be noted: chinese hamster.
The subject of data set [7] is CHO. As to the kind of experiment: Cytotoxicity against CHO cells overexpressing 3-O-sulfotransferase 3 assessed as reduction in cell viability at 10 uM incubated for 48 hrs by resazurin reagent based fluorescence assay. Also noted: species or system Cricetulus griseus. Particulars: chinese hamster.
The test system of data set [8] is CHO. As to the kind of experiment: Cytotoxicity against CHO cells overexpressing 3-O-sulfotransferase 1 assessed as reduction in cell viability at 10 uM incubated for 48 hrs by resazurin reagent based fluorescence assay. Also noted: species or system Cricetulus griseus. Particulars: chinese hamster.
Data set [9] can be described thus: Drug localization in golgi bodies of human A549 cells at 10 uM measured upto 12 hrs by Golgin-97 and DAPI staining based laser scanning confocal microscopic analysis. The format is ADME, subcellular, Golgi body. To be noted: a549, 12 h.
Data set [10] can be described thus: Drug localization in golgi bodies of human HCT-116 cells at 10 uM measured upto 12 hrs by Golgin-97 and DAPI staining based laser scanning confocal microscopic analysis. The format is ADME, subcellular, Golgi body. To be noted: hct-116, 12 h.
The nature of data set [11]: Drug localization in golgi vesicles of human A549 cells at 10 uM incubated for 4 hrs by Golgin-97 and DAPI staining based laser scanning confocal microscopic analysis. In kind it is ADME, subcellular, Golgi body. To be noted: a549, 4 h.

The structures appear in SMILES notation. Calls of active or inactive are those of the source. The calls are words filed in the database; no cut-off is given here. A value given as a limit tells only on which side of the number the result lay.

Regarding `COc1cc(/C=C/c2cc(/C=C/c3cc(OC)c(OC)c(OC)c3)nc(OCCCCBr)n2)cc(OC)c1OC`, the IC50 with A549 [1], in the data set with HT-29, in the data set with NCI-H1299 and in the data set with HCT-116 was greater than 20 µM each time.

As for `COc1ccc(/C=C/c2cc(/C=C/c3ccc(OC)cc3)nc(OCCCCCCBr)n2)cc1`, the IC50 in the data set with A549 [1], in the data set on HT-29, in the data set with NCI-H1299 and with HCT-116 was greater than 20 µM throughout.

As for `COc1ccc(/C=C/c2cc(/C=C/c3ccc(OC)c(OC)c3)nc(OCCCCSC(N(C)C)=[N+](C)C)n2)cc1OC.[Br-]`, the Activity result (with CHO [2]; in data set [3]; in the data set on CHO-K1; in data set [4]; in the data set on CHO [6]; in the data set on CHO [7]) was “Non-Toxic” throughout. The Activity result with CHO [8] was “Non-Toxic”. Also, the IC50 in the data set with A549 [1] amounted to 9.71 µM; with HT-29, 4.1 µM; with NCI-H1299 it was 5.81 µM; in the data set on HCT-116, 3.89 µM. The result in the data set with A549 [5] was Active.

Regarding `COc1ccc(/C=C/c2cc(/C=C/c3ccc(OC)cc3)nc(OCCCCSC(N(C)C)=[N+](C)C)n2)cc1.[Br-]`, the Activity result (in the data set with CHO [2]; in data set [3]; in the data set on CHO-K1; in data set [4]; with CHO [6]; in the data set with CHO [7]) was “Non-Toxic” throughout. Further, in the data set on CHO [8], the Activity result is on record as “Non-Toxic”. Also, the Drug uptake entry in data set [9] and in data set [10] was “Not Active” each time. In addition, the IC50 in the data set with A549 [1] came to 2.26 µM; with HT-29, 5.97 µM; with NCI-H1299 it was 7.49 µM; in the data set on HCT-116 it was 3 µM. Besides, in the data set with A549 [5], the result was Active.

As to `COc1ccc(/C=C/c2cc(/C=C/c3ccc(OC)c(OC)c3)nc(OCCCCCSC(=N)N)n2)cc1OC`, the concentration for half-maximal inhibition (IC50) with A549 [1] was 1.99 µM; in the data set with HT-29 it was 1.91 µM; in the data set with NCI-H1299, 4.04 µM; in the data set with HCT-116, 1.81 µM.

On to `BrCCCCCCOc1nc(/C=C/c2ccccc2)cc(/C=C/c2ccccc2)n1`, for which the IC50 with A549 [1], with HT-29, with NCI-H1299 and in the data set on HCT-116 was greater than 20 µM throughout.

As to `COc1cc(/C=C/c2cc(/C=C/c3cc(OC)c(OC)c(OC)c3)nc(OCCCCSC(N(C)C)=[N+](C)C)n2)cc(OC)c1OC`, the concentration for half-maximal inhibition (IC50) in the data set with A549 [1] is 14.4 µM; with HT-29, 10.5 µM; in the data set on NCI-H1299, 15 µM; in the data set on HCT-116 it was 5.41 µM.

As for `Br.COc1ccc(/C=C/c2cc(/C=C/c3ccc(OC)c(OC)c3)nc(OCCCCSC(=N)N)n2)cc1OC`, the Activity result (in the data set on CHO [2]; in [3]; in the data set with CHO-K1; in [4]; in the data set with CHO [6]; in the data set on CHO [7]) was “Toxic” each time. Also, the Activity result with CHO [8] is listed as “Toxic”. For the same compound, the IC50 came out at 2.36 µM in the data set with A549 [1], 0.61 µM with HT-29, 1.53 µM with NCI-H1299 and 1.86 µM in the data set on HCT-116. Also, the outcome with A549 [5] was Active.

Turning to `N=C(N)SCCCCCCOc1nc(/C=C/c2ccccc2)cc(/C=C/c2ccccc2)n1`, the half-maximal inhibitory concentration (IC50) in the data set on A549 [1] came to 3.98 µM; in the data set on HT-29, 2.89 µM; in the data set with NCI-H1299 it was 6.4 µM; in the data set on HCT-116 it was 2.3 µM.

Turning to `COc1ccc(/C=C/c2cc(/C=C/c3ccc(OC)c(OC)c3)nc(OCCCCCBr)n2)cc1OC`, the IC50 with A549 [1], with HT-29, with NCI-H1299 and in the data set on HCT-116 was greater than 20 µM in each case.

Consider `COc1ccc(/C=C/c2cc(/C=C/c3ccc(OC)c(OC)c3)nc(OCCCCBr)n2)cc1OC`, for which the Activity result (in the data set on CHO [2]; in data set [3]; with CHO-K1; in data set [4]; in the data set with CHO [6]; with CHO [7]) was “Toxic” in each case. In addition, the Activity result with CHO [8] is recorded as “Toxic”. Besides, the IC50 in the data set with A549 [1], in the data set with HT-29, in the data set on NCI-H1299 and in the data set with HCT-116 was greater than 20 µM in each case. Moreover, in the data set with A549 [5], the result was Active.

In the case of `BrCCCCOc1nc(/C=C/c2ccccc2)cc(/C=C/c2ccccc2)n1`, the IC50 in the data set with A549 [1], in the data set on HT-29, in the data set on NCI-H1299 and in the data set with HCT-116 was greater than 20 µM each time.

With `Br.COc1ccc(/C=C/c2cc(/C=C/c3ccc(OC)cc3)nc(OCCCCCSC(=N)N)n2)cc1`, the Drug uptake result in data set [9], in data set [10] and in [11] was “Active” in each case. The IC50 in the data set with A549 [1] is 1.97 µM; with HT-29, 2.03 µM; with NCI-H1299, 2.96 µM; with HCT-116, 1.93 µM.

`N=C(N)SCCCCOc1nc(/C=C/c2ccccc2)cc(/C=C/c2ccccc2)n1`: the half-inhibitory concentration (IC50) in the data set with A549 [1] was 4.57 µM; with HT-29, 1.75 µM; with NCI-H1299, 4.51 µM; in the data set with HCT-116, 1.87 µM.

As for `Br.COc1ccc(/C=C/c2cc(/C=C/c3ccc(OC)cc3)nc(OCCCCCCSC(=N)N)n2)cc1`, the Drug uptake result in data set [9], in [10] and in data set [11] was “Active” in each case. Besides, the IC50 in the data set on A549 [1] was 1.97 µM; with HT-29, 2.14 µM; with NCI-H1299, 3.69 µM; with HCT-116 it was 1.98 µM.

In the case of `COc1cc(/C=C/c2cc(/C=C/c3cc(OC)c(OC)c(OC)c3)nc(OCCCCCCBr)n2)cc(OC)c1OC`, the IC50 in the data set on A549 [1], in the data set with HT-29, in the data set with NCI-H1299 and in the data set with HCT-116 was greater than 20 µM each time.

On to `COc1cc(/C=C/c2cc(/C=C/c3cc(OC)c(OC)c(OC)c3)nc(OCCCCSC(=N)N)n2)cc(OC)c1OC`, for which the half-maximal inhibitory concentration (IC50) in the data set with A549 [1] was found to be 4.24 µM; in the data set with HT-29 it was 2.19 µM; in the data set with NCI-H1299, 5.1 µM; with HCT-116, 3.77 µM.

For the compound `BrCCCCCOc1nc(/C=C/c2ccccc2)cc(/C=C/c2ccccc2)n1`, the IC50 in the data set with A549 [1], in the data set on HT-29, in the data set on NCI-H1299 and in the data set with HCT-116 was greater than 20 µM throughout.

As to `COc1ccc(/C=C/c2cc(/C=C/c3ccc(OC)c(OC)c3)nc(OCCCCCCBr)n2)cc1OC`, the IC50 with A549 [1], in the data set on HT-29, with NCI-H1299 and in the data set on HCT-116 was greater than 20 µM throughout.

As to `COc1cc(/C=C/c2cc(/C=C/c3cc(OC)c(OC)c(OC)c3)nc(OCCCCCBr)n2)cc(OC)c1OC`, the IC50 in the data set on A549 [1], with HT-29, with NCI-H1299 and in the data set with HCT-116 was greater than 20 µM throughout.

Regarding `COc1ccc(/C=C/c2cc(/C=C/c3ccc(OC)c(OC)c3)nc(OCCCCCCSC(=N)N)n2)cc1OC`, the IC50 with A549 [1] worked out at 2.09 µM; in the data set with HT-29, 1.72 µM; in the data set on NCI-H1299 it was 3.75 µM; in the data set on HCT-116, 2.02 µM.

`COc1cc(/C=C/c2cc(/C=C/c3cc(OC)c(OC)c(OC)c3)nc(OCCCCCSC(=N)N)n2)cc(OC)c1OC`: the IC50 with A549 [1] came to 2.88 µM; in the data set with HT-29, 1.86 µM; with NCI-H1299, 4.13 µM; in the data set with HCT-116 it was 2.08 µM.

With `N=C(N)SCCCCCOc1nc(/C=C/c2ccccc2)cc(/C=C/c2ccccc2)n1`, the IC50 in the data set with A549 [1] was found to be 4.11 µM; in the data set on HT-29, 2.82 µM; in the data set on NCI-H1299, 7.09 µM; in the data set on HCT-116, 2.39 µM.

`COc1cc(/C=C/c2cc(/C=C/c3cc(OC)c(OC)c(OC)c3)nc(OCCCCCCSC(=N)N)n2)cc(OC)c1OC`: the half-maximal inhibitory concentration (IC50) with A549 [1] stood at 2 µM; with HT-29 it was 1.17 µM; in the data set on NCI-H1299, 3.09 µM; in the data set on HCT-116 it was 1.87 µM.

Consider `COc1ccc(/C=C/c2cc(/C=C/c3ccc(OC)cc3)nc(OCCCCCBr)n2)cc1`, for which the IC50 in the data set with A549 [1], in the data set on HT-29, in the data set with NCI-H1299 and with HCT-116 was greater than 20 µM in each case.
